This note sets out measurements from patent US8618080B2, “Immunomodulatory compounds and treatment of diseases related to an overproduction of inflammatory cytokines” (OM Pharma, priority 2006, dated 2013).

For data set [1], the system named is human CD4+ T cells. Put plainly: Cytokine production and proliferation of naïve CD4+ T cells stimulated with anti-CD3 and anti-CD28. In kind it is cell-based. Particulars: 0.02-20 μg/ml; for IFN-γ production by CD4+ T cells / IL-13 production by CD4+ T cells: 6 days, ELISA. The protocol:
A series of four compounds of the present invention (OM-197-MP-AC, OM-197-MC-HD, OM-294-BA-MP, OM-197-MP-HD) were tested directly as summarized below:
Naïve CD4^+ T cells were magnetically sorted from healthy blood donor (buffy coat). The cells were stimulated in the presence or not of graded doses of triacyl derivatives (0.02; 0.2; 2 and 20 μg/ml) using plate-bound anti-CD3 (5 μg/ml) and soluble anti-CD28 (1 μg/ml). After 6 days, cytokine levels (IFN-γ and IL-13) were tested in the culture supernatants using ELISA.
FIGS. 3A-3D: Effect of increasing doses of the four compounds tested (OM-197-MP-AC, n=5; OM-197-MC-HD, n=5; OM-294-BA-MP, n=7; OM-197-MP-HD, n=3) on IFN-γ and IL-13 production of human CD4^+ T cells following a polyclonal activation. Results are expressed as the median (±p25/p75) of n independent experiments and show the percentage (%) proliferation or cytokine production of treated cells versus untreated cells (considered as 100%, see dotted line). The statistical analysis was performed using a nonparametric unpaired Mann-Whitney t test (2-tailed).
(ELISA stands for enzyme-linked immunosorbent assay.)

For data set [2], the system named is Limulus Amoebocyte Lysate. Put plainly: Limulus Amoebocyte Lysate chromogenic test (LAL endotoxicity). In kind it is biochemical. The protocol: Endotoxicity was determined first for OM-197-MP-AC and for OM-294-DP by the Limulus Amoebocyte Lysate chromogenic test (Chromogenic-LAL of Bio-Whittaker, kit n° 50-65OU).
The enzymatic reaction is carried out at 37° C. and the formation of the chromogen over time is measured at 405 nm. The time necessary to reach 0.2 units of D.O. is recorded and the endotoxic activity calculated in relation to a LPS standard (standard curve). The results are expressed in EU (Endotoxin Unit) in relation to a standardized preparation of E. coli LPS (1 EU corresponds to 0.08 ng equivalent LPS).

Data set [3] has as its system murine DC cells. Put plainly: LPS-induced IL-12, TNF-α and IL-10 production by bone marrow derived dendritic cells. To be noted: murine BM-derived DC; compound 0.01-100 μg/ml 1 h 30 before LPS 1 μg/ml; 20 h; ELISA. In kind it is cell-based, murine (C57BL/7). As for the experimental part:
Femora and tibiae from two male C57BL/7, 6 week-old (Charles River Laboratories France), were removed, stripped of muscles and tendons, and desinfected with 70% ethanol. Both ends of each bone were cut and the marrow was flushed with HBSS (Gibco BRL) using a syringe with a 26-gauge needle. The resulting cell suspension was centrifuged for 5 min. at 500 g and washed in HBSS. The cells were resuspended at 3×10^5 cells/ml in RPMI-1640 (Gibco BRL) supplemented with 2 mM L-glutamin (Sigma), 100 U/ml penicillin (Sigma), 100 μg/ml streptomycin (Sigma), 50 μM β-mercaptoethanol (Sigma), 10% heat-inactivated FCS (Sigma) and 15 ng/ml murine rGM-CSF (R&D).
To generate bone marrow (BM) derived dendritic cells (DC), BM leukocytes were cultured in 100-mm bacteriological petri dishes (Falcon 1029) for 8 days at 37° C. in 5% CO2. On day 0, 10 ml of cell suspension were seeded per dish. On day 3, another 10 ml of freshly prepared medium were added to each plate and on day 6, 9 ml of top medium were carefully removed from each plate and replaced by 10 ml of fresh medium.
Non-adherent cells of the 8-day old BM cell cultures were collected, centrifuged for 5 min. at 500 g, and resuspended at 1.25×10^6 cells/ml in supplemented RPMI containing 10 ng/ml GM-CSF. The cells were then seeded in 24-well tissue culture plates ([…]) and incubated for 1 h 30 at 37° C. in 5% CO2 in the absence or presence of OM-294-DP or OM-197-MP-AC (0.01-100 μg/ml/200 μl/well). LPS (E.coli O26:B6, Sigma), was then added at 1 μg/ml, and the plates were further incubated. After 20 h incubation, the supernatants were collected for analysis of cytokines. IL-12p70, IL-10, and TNF-α concentrations in DC culture supernatants were measured by ELISA using OptEIA matched Ab pairs from BD Pharmingen. Supersignal ELISA Pico chemiluminescent peroxidase substrate (BD Pharmingen) was used for the detection by luminometry (Wallac 1420 multilabel counter Victor-2). The assays were performed according to manufacturer's instructions.
FIG. 1: IL-12 (left panels) and IL-10 (right panels) secretion by murine DC stimulated by LPS (1 μg/ml) alone, or first during 90 minutes with the indicated concentrations (in μg/ml) of OM-197-MP-AC (A) or 294-DP (B), and then by LPS (1 μg/ml) for 20 additional hours. The supernatants were collected from the DC cultures and analyzed by ELISA for the presence of IL-12 and IL-10.
FIG. 2: TNF-α secretion by murine DC stimulated by LPS (1 μg/ml) alone, or first during 90 minutes with the indicated concentrations (in μg/ml) of 294-DP (294), or of OM-197-MP-AC (197), and then by LPS (1 μg/ml) for 20 additional hours. The supernatants were collected from the DC cultures and analyzed by ELISA for the presence of TNF-α.

For `CCCCCCCCCCCC(=O)O[C@H](CCCCCCCCCCC)CC(=O)N[C@@H](CC(=O)O)C(=O)NCCC[C@H](COC(=O)CCCCC(O)CO)NC(=O)C[C@H](O)CCCCCCCCCCC` (stereo partly drawn) [OM-197-MC-HD, N-[(R)-3-dodecanoyloxytetradecanoylamino]-L-aspartic acid, α-N-{(4R)-5-hydroxy-4-[(R)-3-hydroxytetradecanoylamino]pentyl}amide 5-O-(6,7-dihydroxyheptanoate)], in data set [1], the T cell proliferation result is given as “unaffected”, the “IFN-γ production by CD4+ T cells” value is on record as “unaffected” and the “IL-13 production by CD4+ T cells” value is on record as “reduced”.
Turning to `CCCCCCCCCCCC(=O)O[C@H](CCCCCCCCCCC)CC(=O)N[C@@H](CCCCN)C(=O)NCCC[C@H](COP(=O)(O)O)NC(=O)C[C@H](O)CCCCCCCCCCC` [OM-294-BA-MP, (5S,11R)-1-Amino-5-[(R)-3-dodecanoyloxytetradecanoylamino]-6-oxo-7-aza-11-[(R)-3-hydroxytetradecanoylamino]-dodecan-12-ol 12-dihydrogenophosphate], in data set [1], the T cell proliferation result is on record as “unaffected”, the “IFN-γ production by CD4+ T cells” value is reported as “unaffected” and the “IL-13 production by CD4+ T cells” value was “reduced”.
Turning to `CCCCCCCCCCCC(=O)O[C@H](CCCCCCCCCCC)CC(=O)N[C@@H](CCOP(=O)(O)O)C(=O)NCCC[C@H](COC(=O)CCCCC(O)CO)NC(=O)C[C@H](O)CCCCCCCCCCC` (stereo partly drawn) [OM-197-MP-HD, (3S, 9R)-3-[(R)-3-dodecanoyloxytetradecanoylamino]-4-oxo-5-aza-9-[(R)-3-hydroxytetradecanoylamino]-decan-1, 10-diol 1-dihydrogenophosphate 10-(6,7-dihydroxyheptanoate)], in data set [1], the T cell proliferation entry is given as “unaffected”, the “IFN-γ production by CD4+ T cells” value is on record as “unaffected” and the “IL-13 production by CD4+ T cells” value was “reduced”.
As for `CCCCCCCCCCCC(=O)O[C@H](CCCCCCCCCCC)CC(=O)N[C@@H](CCOP(=O)(O)O)C(=O)NCCC[C@H](COP(=O)(O)O)NC(=O)C[C@H](O)CCCCCCCCCCC` [OM-294-DP], in data set [2], the “Limulus activity in the chromogenic LAL assay” value is reported as “very little or no Limulus activity”. In addition, in data set [3], the “LPS-induced production of IL-10” value was “increase”, the “LPS-induced production of IL-12” value is listed as “decrease” and the “LPS-induced production of TNF-α” value is “decrease”.
